This passage reports Kd results from US20230203098A1, “HUMAN TRANSFERRIN RECEPTOR BINDING PEPTIDE” (priority 2020, published 2023).

For orientation: Kd means the constant that tells how readily two partners part at equilibrium.

SMILES strings stand for the structures. *1 amine or outer side, *2 acyl side, *3 side chain or, on linkers, in order; H or OH if unused. Where a SMILES comes first, the peptide text is derived from it. Bridges are numbered along the chain shown (N, C = ends). [ ]: non-standard residue; d: D form. X3 = NC(=O)Cn1cc(C[C@H](N[*:1])C(=O)[*:2])c2ccccc21; X5 = O=C([C@H](Cc1cn(CCO)c2ccccc12)N[*:1])[*:2]; NMePhe(3-Cl) = CN[C@@H](Cc1cccc(Cl)c1)C(=O)O; NMeW = CN[C@@H](Cc1c[nH]c2ccccc12)C(=O)O; NMeY = CN[C@@H](Cc1ccc(O)cc1)C(=O)O; NMeF = CN[C@@H](Cc1ccccc1)C(=O)O; PEG4 = NCCOCCOCCOCCOCCC(=O)O; Aib = CC(C)(N)C(=O)O

transferrin receptor (hTfR), sequence (P02786 whole entry): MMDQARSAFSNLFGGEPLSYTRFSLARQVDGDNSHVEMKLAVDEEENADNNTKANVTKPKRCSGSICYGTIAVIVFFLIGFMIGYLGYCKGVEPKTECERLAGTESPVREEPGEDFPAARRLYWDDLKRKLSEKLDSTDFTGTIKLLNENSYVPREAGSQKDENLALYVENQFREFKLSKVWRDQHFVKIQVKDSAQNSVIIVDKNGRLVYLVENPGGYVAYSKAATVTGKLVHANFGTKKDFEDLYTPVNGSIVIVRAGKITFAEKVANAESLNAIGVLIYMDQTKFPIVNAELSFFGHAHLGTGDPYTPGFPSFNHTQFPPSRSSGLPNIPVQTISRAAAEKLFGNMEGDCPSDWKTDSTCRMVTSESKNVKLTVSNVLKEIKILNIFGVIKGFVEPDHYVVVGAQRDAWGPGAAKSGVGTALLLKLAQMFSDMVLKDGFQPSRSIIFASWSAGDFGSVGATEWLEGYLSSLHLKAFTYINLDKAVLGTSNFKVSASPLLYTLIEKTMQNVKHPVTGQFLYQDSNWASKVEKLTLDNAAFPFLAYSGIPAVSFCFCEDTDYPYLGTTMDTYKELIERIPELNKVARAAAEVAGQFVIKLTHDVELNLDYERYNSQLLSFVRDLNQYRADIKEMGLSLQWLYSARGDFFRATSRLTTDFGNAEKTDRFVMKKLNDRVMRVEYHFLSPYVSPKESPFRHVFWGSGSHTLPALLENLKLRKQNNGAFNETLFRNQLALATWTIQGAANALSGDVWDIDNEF

This experiment has as its target transferrin receptor (hTfR) (Homo sapiens, UniProt P02786). Nature of the experiment: Intermolecular interaction evaluation test between transferrin receptor (hTfR) and peptide by surface plasmon resonance (SPR). Type of experiment: binding. The following applies: surface plasmon resonance, peptide vs hTfR; read-out: KD value, hTfR binding by SPR (class symbol). Put shortly: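 hTfR captured on Ni-NTA chip then amine-coupled; peptides run single-cycle kinetics at 5–100 nM in 10 mM HEPES pH 8.0, 150 mM NaCl, 0.05% Tween 20, 0.1% BSA, 1.0% DMSO. KD from least-squares curve fitting of sensorgrams.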
For the molecule `CC[C@H](C)[C@@H]1NC(=O)[C@H](Cc2ccc(O)cc2)NC(=O)[C@H](Cc2ccc(O)cc2)NC(=O)[C@H](CC(N)=O)NC(=O)[C@H](Cc2c[nH]c3ccccc23)NC(=O)[C@H](C(C)C)NC(=O)[C@H](Cc2ccccc2)N(C)C(=O)[C@H](C(C)C)NC(=O)[C@H](C)NC(=O)CSC[C@@H](C(=O)N[C@H](CCC(=O)O)C(N)=O)NC(=O)[C@H](Cc2ccc(O)cc2)N(C)C(=O)[C@H](Cc2ccc(O)cc2)NC(=O)[C@H](CCCNC(=N)N)NC(=O)[C@H](C)NC(=O)[C@H]([C@@H](C)CC)NC1=O` [compound 291] ({CH2CO}-AV[NMeF]VWNYYIIARY[NMeY]C[dE]-NH2; thioether N-15), the dissociation constant Kd was 1 to 100 nM.

Consider `CC[C@H](C)[C@@H]1NC(=O)[C@H](Cc2ccc(O)cc2)NC(=O)[C@H](Cc2ccc(O)cc2)NC(=O)[C@H](CC(N)=O)NC(=O)[C@H](Cc2c[nH]c3ccccc23)NC(=O)[C@H](C(C)C)NC(=O)[C@H](Cc2ccccc2)N(C)C(=O)[C@H](C(C)C)NC(=O)[C@H](C)NC(=O)CSC[C@@H](C(N)=O)NC(=O)[C@H](Cc2ccc(O)cc2)N(C)C(=O)[C@H](Cc2ccc(O)cc2)NC(=O)[C@H](CCCNC(=N)N)NC(=O)[C@H](CCCCN)N(C)C(=O)[C@H]([C@@H](C)CC)NC1=O` [compound 292], for which the Kd is 1 to 100 nM. The figure for `CC[C@H](C)[C@@H]1NC(=O)[C@H](Cc2ccc(O)cc2)NC(=O)[C@H](Cc2ccc(O)cc2)NC(=O)[C@H](CC(N)=O)NC(=O)[C@H](Cc2c[nH]c3ccccc23)NC(=O)[C@H](C(C)C)NC(=O)[C@H](Cc2ccccc2)N(C)C(=O)[C@H](C(C)C)NC(=O)[C@H](C)NC(=O)CSC[C@@H](C(N)=O)NC(=O)[C@H](Cc2ccc(O)cc2)N(C)C(=O)[C@H](Cc2ccc(O)cc2)NC(=O)[C@H](CCCNC(=N)N)NC(=O)[C@H](CCCCN)NC(=O)[C@H]([C@@H](C)CC)NC1=O` [compound 293] is 1 to 100 nM; for `CC[C@H](C)[C@@H]1NC(=O)[C@H](Cc2ccc(O)cc2)NC(=O)[C@H](Cc2ccc(O)cc2)NC(=O)[C@H](CC(N)=O)NC(=O)[C@H](Cc2c[nH]c3ccccc23)NC(=O)[C@H](C(C)C)NC(=O)[C@H](Cc2ccccc2)N(C)C(=O)[C@H](C(C)C)NC(=O)[C@H](C)NC(=O)CSC[C@@H](C(N)=O)NC(=O)[C@H](Cc2ccc(O)cc2)N(C)C(=O)[C@H](Cc2ccc(O)cc2)NC(=O)[C@H](CCCNC(=N)N)NC(=O)[C@H](CCCNC(=N)N)NC(=O)[C@H]([C@@H](C)CC)NC1=O` [compound 296] it is 1 to 100 nM; for `CC[C@H](C)[C@@H]1NC(=O)[C@H](Cc2ccc(O)cc2)NC(=O)[C@H](Cc2ccc(O)cc2)NC(=O)[C@H](CC(N)=O)NC(=O)[C@H](Cc2c[nH]c3ccccc23)NC(=O)[C@H](C(C)C)NC(=O)[C@H](Cc2ccccc2)N(C)C(=O)[C@H](C(C)C)NC(=O)[C@H](C)NC(=O)CSC[C@@H](C(=O)NCC(=O)N[C@@H](CCCCN=[N+]=[N-])C(N)=O)NC(=O)[C@H](Cc2ccc(O)cc2)N(C)C(=O)[C@H](Cc2ccc(O)cc2)NC(=O)[C@H](CCCNC(=N)N)NC(=O)[C@H](CCCNC(=N)N)NC(=O)[C@H]([C@@H](C)CC)NC1=O` [compound 297] it is 1 to 100 nM. The figure for `CC[C@H](C)[C@@H]1NC(=O)[C@H](Cc2ccc(O)cc2)NC(=O)[C@H](Cc2ccc(O)cc2)NC(=O)[C@H](CC(N)=O)NC(=O)[C@H](Cc2c[nH]c3ccccc23)NC(=O)[C@H](C(C)C)NC(=O)[C@H](Cc2ccccc2)N(C)C(=O)[C@H](C(C)C)NC(=O)[C@H](C)NC(=O)CSC[C@@H](C(=O)N(C)CC(=O)N(C)CC(=O)N(C)CC(N)=O)NC(=O)[C@H](Cc2ccc(O)cc2)N(C)C(=O)[C@H](Cc2ccc(O)cc2)NC(=O)[C@H](CCCNC(=N)N)NC(=O)[C@H](CCCNC(=N)N)NC(=O)[C@H]([C@@H](C)CC)NC1=O` [compound 298] is 1 to 100 nM; for `CC[C@H](C)[C@@H]1NC(=O)[C@H](Cc2ccc(O)cc2)NC(=O)[C@H](Cc2ccc(O)cc2)NC(=O)[C@H](CC(N)=O)NC(=O)[C@H](Cc2c[nH]c3ccccc23)N(C)C(=O)[C@H](C(C)C)NC(=O)[C@H](Cc2ccccc2)N(C)C(=O)[C@H](C(C)C)NC(=O)[C@H](C)NC(=O)CSC[C@@H](C(N)=O)NC(=O)[C@H](Cc2ccc(O)cc2)N(C)C(=O)[C@H](Cc2ccc(O)cc2)NC(=O)[C@H](CCCNC(=N)N)NC(=O)[C@H](CCCNC(=N)N)NC(=O)[C@H]([C@@H](C)CC)NC1=O` [compound 299] it is 1 to 100 nM; for `CC[C@H](C)[C@@H]1NC(=O)[C@H](Cc2ccc(O)cc2)NC(=O)[C@H](Cc2ccc(O)cc2)NC(=O)[C@H](CC(N)=O)NC(=O)[C@H](Cc2c[nH]c3ccccc23)N(C)C(=O)[C@H](C(C)C)NC(=O)[C@H](Cc2ccccc2)N(C)C(=O)[C@H](C(C)C)NC(=O)[C@H](C)NC(=O)CSC[C@@H](C(N)=O)NC(=O)[C@H](Cc2ccc(O)cc2)N(C)C(=O)[C@H](Cc2ccc(O)cc2)NC(=O)[C@H](CCCNC(=N)N)NC(=O)[C@H](CCCCN)NC(=O)[C@H]([C@@H](C)CC)NC1=O` [compound 300] it is 1 to 100 nM.

With `CC[C@H](C)[C@@H]1NC(=O)[C@H](Cc2ccc(OC)cc2)NC(=O)[C@H](Cc2ccc(O)cc2)NC(=O)[C@H](CC(N)=O)NC(=O)[C@H](Cc2c[nH]c3ccccc23)N(C)C(=O)[C@H](C(C)C)NC(=O)[C@H](Cc2ccccc2)N(C)C(=O)[C@H](C(C)C)NC(=O)[C@H](C)NC(=O)CSC[C@@H](C(=O)NCCOCCOCCOCCOCCC(N)=O)NC(=O)[C@H](Cc2ccc(O)cc2)N(C)C(=O)[C@H](Cc2ccccc2)NC(=O)[C@@H](CCCNC(=N)N)NC(=O)C(C)(C)NC(=O)[C@H]([C@@H](C)CC)NC1=O` [compound 301] ({CH2CO}-AV[NMeF]V[NMeW]NYY(Me)II[Aib][dR]F[NMeY]C[PEG4]-NH2; thioether N-15), the Kd fell in the range of 1 to 100 nM. The figure for `CC[C@H](C)[C@@H]1NC(=O)[C@H](Cc2ccc(O)cc2)NC(=O)[C@H](Cc2ccc(O)cc2)NC(=O)[C@H](CC(N)=O)NC(=O)[C@H](Cc2c[nH]c3ccccc23)N(C)C(=O)[C@H](C(C)C)NC(=O)[C@H](Cc2cc(Cl)cc(Cl)c2)N(C)C(=O)[C@H](C(C)C)NC(=O)[C@H](C)NC(=O)CSC[C@@H](C(N)=O)NC(=O)[C@H](Cc2ccc(O)cc2)N(C)C(=O)[C@H](Cc2ccccc2)NC(=O)[C@@H](CCCNC(=N)N)NC(=O)[C@H](CCCNC(=N)N)NC(=O)[C@H]([C@@H](C)CC)NC1=O` [compound 302] is 1 to 100 nM; for `CC[C@H](C)[C@@H]1NC(=O)[C@H](Cc2ccc(OC)cc2)NC(=O)[C@H](Cc2ccc(O)cc2)NC(=O)[C@H](CC(N)=O)NC(=O)[C@H](Cc2cn(CC(=O)O)c3ccccc23)NC(=O)[C@H](C(C)C)NC(=O)[C@H](Cc2cccc(Cl)c2)N(C)C(=O)[C@H](C(C)C)NC(=O)[C@H](C)NC(=O)CSC[C@@H](C(N)=O)NC(=O)[C@H](Cc2ccc(O)cc2)N(C)C(=O)[C@H](Cc2ccccc2)NC(=O)[C@@H](CCCNC(=N)N)NC(=O)C(C)(C)NC(=O)[C@H]([C@@H](C)CC)NC1=O` [compound 303] it is 1 to 100 nM. For `CC[C@H](C)[C@@H]1NC(=O)[C@H](Cc2ccc(OC)cc2)NC(=O)[C@H](Cc2ccc(O)cc2)NC(=O)[C@H](CC(N)=O)NC(=O)[C@H](Cc2cn(CC(N)=O)c3ccccc23)NC(=O)[C@H](C(C)C)NC(=O)[C@H](Cc2cccc(Cl)c2)N(C)C(=O)[C@H](C(C)C)NC(=O)[C@H](C)NC(=O)CSC[C@@H](C(N)=O)NC(=O)[C@H](Cc2ccc(O)cc2)N(C)C(=O)[C@H](Cc2ccccc2)NC(=O)[C@@H](CCCNC(=N)N)NC(=O)C(C)(C)NC(=O)[C@H]([C@@H](C)CC)NC1=O` [compound 304] ({CH2CO}-AV[NMePhe(3-Cl)]V[X3]NYY(Me)II[Aib][dR]F[NMeY]C-NH2; thioether N-15) the value was 100 to 1000 nM; for `CC[C@H](C)[C@@H]1NC(=O)[C@H](Cc2ccc(OC)cc2)NC(=O)[C@H](Cc2ccc(O)cc2)NC(=O)[C@H](CC(N)=O)NC(=O)[C@H](Cc2cn(CCO)c3ccccc23)NC(=O)[C@H](C(C)C)NC(=O)[C@H](Cc2cccc(Cl)c2)N(C)C(=O)[C@H](C(C)C)NC(=O)[C@H](C)NC(=O)CSC[C@@H](C(N)=O)NC(=O)[C@H](Cc2ccc(O)cc2)N(C)C(=O)[C@H](Cc2ccccc2)NC(=O)[C@@H](CCCNC(=N)N)NC(=O)C(C)(C)NC(=O)[C@H]([C@@H](C)CC)NC1=O` [compound 305] ({CH2CO}-AV[NMePhe(3-Cl)]V[X5]NYY(Me)II[Aib][dR]F[NMeY]C-NH2; thioether N-15), 100 to 1000 nM; for `CC[C@H](C)[C@@H]1NC(=O)[C@H](Cc2ccc(OC)cc2)NC(=O)[C@H](Cc2ccc(O)cc2)NC(=O)[C@H](CC(N)=O)NC(=O)[C@H](Cc2cn(CC(=O)O)c3ccccc23)NC(=O)[C@H](C(C)C)NC(=O)[C@H](Cc2cccc(Cl)c2)N(C)C(=O)[C@H](C(C)C)NC(=O)[C@H](C)NC(=O)CSC[C@@H](C(N)=O)NC(=O)[C@H](Cc2ccc(O)cc2)N(C)C(=O)[C@H](Cc2ccccc2)NC(=O)[C@@H](CCCNC(=N)N)NC(=O)[C@H](CCCNC(=N)N)NC(=O)[C@H]([C@@H](C)CC)NC1=O` [compound 306], 1 to 100 nM. The figure for `CC[C@H](C)[C@@H]1NC(=O)[C@H](Cc2ccc(O)cc2)NC(=O)[C@H](Cc2ccc(O)cc2)NC(=O)[C@H](CC(N)=O)NC(=O)[C@H](Cc2c[nH]c3ccccc23)NC(=O)[C@H](C(C)C)NC(=O)[C@H](Cc2cccc(Cl)c2)N(C)C(=O)[C@H](C(C)C)NC(=O)[C@H](C)NC(=O)CSC[C@@H](C(N)=O)NC(=O)[C@H](Cc2ccc(O)cc2)N(C)C(=O)[C@H](Cc2ccccc2)NC(=O)[C@H](CCCCN)NC(=O)[C@H](CC(=O)O)NC(=O)[C@H]([C@@H](C)CC)NC1=O` [compound 307] is 1 to 100 nM. As for `CC[C@H](C)[C@@H]1NC(=O)[C@H](Cc2ccc(OC)cc2)NC(=O)[C@H](Cc2ccc(O)cc2)NC(=O)[C@H](CC(N)=O)NC(=O)[C@H](Cc2c[nH]c3ccccc23)NC(=O)[C@H](C(C)C)NC(=O)[C@H](Cc2cccc(Cl)c2)N(C)C(=O)[C@H](C(C)C)NC(=O)[C@H](C)NC(=O)CSC[C@@H](C(=O)NCCOCCOCCOCCOCCC(N)=O)NC(=O)[C@H](Cc2ccc(O)cc2)N(C)C(=O)[C@H](Cc2ccccc2)NC(=O)[C@@H](CCCNC(=N)N)NC(=O)C(C)(C)NC(=O)[C@H]([C@@H](C)CC)NC1=O` [compound 310] ({CH2CO}-AV[NMePhe(3-Cl)]VWNYY(Me)II[Aib][dR]F[NMeY]C[PEG4]-NH2; thioether N-15), the Kd is > 1000 nM.
